Measured values: ChEMBL document CHEMBL1140040, “Synthesis and cytotoxic activity of some novel polycyclic gamma-butyrolactones” (Bioorg Med Chem Lett, 2008)
Blank lines part the entries; values can stand above or below the compound they belong to.

Assays:
COLO 205 [1] = assay: Cytotoxicity against human COLO205 cells assessed as age growth inhibition at 50 uM after 48 hrs by sulforhodamine B assay; assay type: functional; conditions: COLO 205, 48 h, read-out: GI
COLO 205 [2] = assay: Cytotoxicity against human COLO205 cells assessed as age growth inhibition at 100 uM after 48 hrs by sulforhodamine B assay; assay type: functional; conditions: COLO 205, 48 h, read-out: GI
IGROV-1 [3] = assay: Cytotoxicity against human IGROV1 cells assessed as age growth inhibition at 10 uM after 48 hrs by sulforhodamine B assay; assay type: functional; conditions: IGROV-1, 48 h, read-out: GI
IGROV-1 [4] = assay: Cytotoxicity against human IGROV1 cells assessed as age growth inhibition at 50 uM after 48 hrs by sulforhodamine B assay; assay type: functional; conditions: IGROV-1, 48 h, read-out: GI
IGROV-1 [5] = assay: Cytotoxicity against human IGROV1 cells assessed as age growth inhibition at 100 uM after 48 hrs by sulforhodamine B assay; assay type: functional; conditions: IGROV-1, 48 h, read-out: GI
SK-OV-3 [6] = assay: Cytotoxicity against human SKOV3 cells assessed as age growth inhibition at 10 uM after 48 hrs by sulforhodamine B assay; assay type: functional; conditions: SK-OV-3, 48 h, read-out: GI
SK-OV-3 [7] = assay: Cytotoxicity against human SKOV3 cells assessed as age growth inhibition at 50 uM after 48 hrs by sulforhodamine B assay; assay type: functional; conditions: SK-OV-3, 48 h, read-out: GI
SK-OV-3 [8] = assay: Cytotoxicity against human SKOV3 cells assessed as age growth inhibition at 100 uM after 48 hrs by sulforhodamine B assay; assay type: functional; conditions: SK-OV-3, 48 h, read-out: GI
DU-145 [9] = assay: Cytotoxicity against human DU145 cells assessed as age growth inhibition at 10 uM after 48 hrs by sulforhodamine B assay; assay type: functional; conditions: DU-145, 48 h, read-out: GI
DU-145 [10] = assay: Cytotoxicity against human DU145 cells assessed as age growth inhibition at 50 uM after 48 hrs by sulforhodamine B assay; assay type: functional; conditions: DU-145, 48 h, read-out: GI
DU-145 [11] = assay: Cytotoxicity against human DU145 cells assessed as age growth inhibition at 100 uM after 48 hrs by sulforhodamine B assay; assay type: functional; conditions: DU-145, 48 h, read-out: GI
HEp-2 [12] = assay: Cytotoxicity against human HEP2 cells assessed as age growth inhibition at 10 uM after 48 hrs by sulforhodamine B assay; assay type: functional; conditions: HEp-2, 48 h, read-out: GI
HEp-2 [13] = assay: Cytotoxicity against human HEP2 cells assessed as age growth inhibition at 50 uM after 48 hrs by sulforhodamine B assay; assay type: functional; conditions: HEp-2, 48 h, read-out: GI
HEp-2 [14] = assay: Cytotoxicity against human HEP2 cells assessed as age growth inhibition at 100 uM after 48 hrs by sulforhodamine B assay; assay type: functional; conditions: HEp-2, 48 h, read-out: GI
SF-295 [15] = assay: Cytotoxicity against human SF295 cells assessed as age growth inhibition at 10 uM after 48 hrs by sulforhodamine B assay; assay type: functional; conditions: SF-295, 48 h, read-out: GI
SF-295 [16] = assay: Cytotoxicity against human SF295 cells assessed as age growth inhibition at 50 uM after 48 hrs by sulforhodamine B assay; assay type: functional; conditions: SF-295, 48 h, read-out: GI
SF-295 [17] = assay: Cytotoxicity against human SF295 cells assessed as age growth inhibition at 100 uM after 48 hrs by sulforhodamine B assay; assay type: functional; conditions: SF-295, 48 h, read-out: GI
A549 [18] = assay: Antiproliferative activity against human A549 cells after 48 hrs by sulforhodamine B assay; assay type: functional, cell-based; conditions: A549, 48 h
HOP-62 [19] = assay: Antiproliferative activity against human HOP62 cells after 48 hrs by sulforhodamine B assay; assay type: functional, cell-based; conditions: HOP-62, 48 h
HCT-15 [20] = assay: Antiproliferative activity against human HCT15 cells after 48 hrs by sulforhodamine B assay; assay type: functional, cell-based; conditions: HCT-15, 48 h
COLO 205 [21] = assay: Antiproliferative activity against human COLO205 cells after 48 hrs by sulforhodamine B assay; assay type: functional, cell-based; conditions: COLO 205, 48 h
IGROV-1 [22] = assay: Antiproliferative activity against human IGROV1 cells after 48 hrs by sulforhodamine B assay; assay type: functional, cell-based; conditions: IGROV-1, 48 h
SK-OV-3 [23] = assay: Antiproliferative activity against human SKOV3 cells after 48 hrs by sulforhodamine B assay; assay type: functional, cell-based; conditions: SK-OV-3, 48 h
DU-145 [24] = assay: Antiproliferative activity against human DU145 cells after 48 hrs by sulforhodamine B assay; assay type: functional, cell-based; conditions: DU-145, 48 h
HEp-2 [25] = assay: Antiproliferative activity against human HEP2 cells after 48 hrs by sulforhodamine B assay; assay type: functional, cell-based; conditions: HEp-2, 48 h
SF-295 [26] = assay: Antiproliferative activity against human SF295 cells after 48 hrs by sulforhodamine B assay; assay type: functional, cell-based; conditions: SF-295, 48 h
A549 [27] = assay: Cytotoxicity against human A549 cells assessed as age growth inhibition at 10 uM after 48 hrs by sulforhodamine B assay; assay type: functional; conditions: A549, 48 h, read-out: GI
A549 [28] = assay: Cytotoxicity against human A549 cells assessed as age growth inhibition at 50 uM after 48 hrs by sulforhodamine B assay; assay type: functional; conditions: A549, 48 h, read-out: GI
A549 [29] = assay: Cytotoxicity against human A549 cells assessed as age growth inhibition at 100 uM after 48 hrs by sulforhodamine B assay; assay type: functional; conditions: A549, 48 h, read-out: GI
HOP-62 [30] = assay: Cytotoxicity against human HOP62 cells assessed as age growth inhibition at 10 uM after 48 hrs by sulforhodamine B assay; assay type: functional; conditions: HOP-62, 48 h, read-out: GI
HOP-62 [31] = assay: Cytotoxicity against human HOP62 cells assessed as age growth inhibition at 50 uM after 48 hrs by sulforhodamine B assay; assay type: functional; conditions: HOP-62, 48 h, read-out: GI
HOP-62 [32] = assay: Cytotoxicity against human HOP62 cells assessed as age growth inhibition at 100 uM after 48 hrs by sulforhodamine B assay; assay type: functional; conditions: HOP-62, 48 h, read-out: GI
HCT-15 [33] = assay: Cytotoxicity against human HCT15 cells assessed as age growth inhibition at 10 uM after 48 hrs by sulforhodamine B assay; assay type: functional; conditions: HCT-15, 48 h, read-out: GI
HCT-15 [34] = assay: Cytotoxicity against human HCT15 cells assessed as age growth inhibition at 50 uM after 48 hrs by sulforhodamine B assay; assay type: functional; conditions: HCT-15, 48 h, read-out: GI
HCT-15 [35] = assay: Cytotoxicity against human HCT15 cells assessed as age growth inhibition at 100 uM after 48 hrs by sulforhodamine B assay; assay type: functional; conditions: HCT-15, 48 h, read-out: GI
COLO 205 [36] = assay: Cytotoxicity against human COLO205 cells assessed as age growth inhibition at 10 uM after 48 hrs by sulforhodamine B assay; assay type: functional; conditions: COLO 205, 48 h, read-out: GI

IC50 (A549 [18]): 79.3 µM | IC50 (HCT-15 [20]): > 100 µM | IC50 (COLO 205 [21]): > 100 µM | IC50 (SK-OV-3 [23]): > 100 µM | IC50 (DU-145 [24]): > 100 µM
SMILES: CC1(C)CCC[C@@]2(C)C1=C[C@H]1C(=O)O[C@H](c3ccc(F)cc3)[C@H]12
inhibition of growth at 50 µM (COLO 205 [1]): 26% | inhibition of growth at 100 µM (COLO 205 [2]): 32% | inhibition of growth at 10 µM (IGROV-1 [3]): 7% | inhibition of growth at 50 µM (IGROV-1 [4]): 20% | inhibition of growth at 100 µM (IGROV-1 [5]): 29% | inhibition of growth at 10 µM (SK-OV-3 [6]): 6% | inhibition of growth at 50 µM (SK-OV-3 [7]): 13% | inhibition of growth at 100 µM (SK-OV-3 [8]): 41% | inhibition of growth at 10 µM (DU-145 [9]): 0% | inhibition of growth at 50 µM (DU-145 [10]): 0% | inhibition of growth at 100 µM (DU-145 [11]): 35% | inhibition of growth at 10 µM (HEp-2 [12]): 7% | inhibition of growth at 50 µM (HEp-2 [13]): 13% | inhibition of growth at 100 µM (HEp-2 [14]): 23% | inhibition of growth at 10 µM (SF-295 [15]): 4% | inhibition of growth at 50 µM (SF-295 [16]): 10% | inhibition of growth at 100 µM (SF-295 [17]): 15% | IC50 (HOP-62 [19]): > 100 µM | IC50 (IGROV-1 [22]): > 100 µM | IC50 (HEp-2 [25]): > 100 µM | IC50 (SF-295 [26]): > 100 µM | inhibition of growth at 10 µM (A549 [27]): 2% | inhibition of growth at 50 µM (A549 [28]): 45% | inhibition of growth at 100 µM (A549 [29]): 51% | inhibition of growth at 10 µM (HOP-62 [30]): 9% | inhibition of growth at 50 µM (HOP-62 [31]): 14% | inhibition of growth at 100 µM (HOP-62 [32]): 27% | inhibition of growth at 10 µM (HCT-15 [33]): 13% | inhibition of growth at 50 µM (HCT-15 [34]): 34% | inhibition of growth at 100 µM (HCT-15 [35]): 38% | inhibition of growth at 10 µM (COLO 205 [36]): 11%

IC50 (A549 [18]): 97.6 µM | IC50 (HCT-15 [20]): 75.3 µM | IC50 (COLO 205 [21]): 63.6 µM | IC50 (SK-OV-3 [23]): 86.5 µM | IC50 (DU-145 [24]): 87.6 µM
SMILES: CC1(C)CCC[C@@]2(C)C1=C[C@H]1C(=O)O[C@H](c3ccccc3)[C@H]12
inhibition of growth at 50 µM (COLO 205 [1]): 34% | inhibition of growth at 100 µM (COLO 205 [2]): 79% | inhibition of growth at 10 µM (IGROV-1 [3]): 0% | inhibition of growth at 50 µM (IGROV-1 [4]): 22% | inhibition of growth at 100 µM (IGROV-1 [5]): 63% | inhibition of growth at 10 µM (SK-OV-3 [6]): 20% | inhibition of growth at 50 µM (SK-OV-3 [7]): 30% | inhibition of growth at 100 µM (SK-OV-3 [8]): 57% | inhibition of growth at 10 µM (DU-145 [9]): 15% | inhibition of growth at 50 µM (DU-145 [10]): 32% | inhibition of growth at 100 µM (DU-145 [11]): 56% | inhibition of growth at 10 µM (HEp-2 [12]): 6% | inhibition of growth at 50 µM (HEp-2 [13]): 18% | inhibition of growth at 100 µM (HEp-2 [14]): 37% | inhibition of growth at 10 µM (SF-295 [15]): 15% | inhibition of growth at 50 µM (SF-295 [16]): 18% | inhibition of growth at 100 µM (SF-295 [17]): 22% | IC50 (HOP-62 [19]): > 100 µM | IC50 (IGROV-1 [22]): 83.7 µM | IC50 (HEp-2 [25]): > 100 µM | IC50 (SF-295 [26]): > 100 µM | inhibition of growth at 10 µM (A549 [27]): 11% | inhibition of growth at 50 µM (A549 [28]): 29% | inhibition of growth at 100 µM (A549 [29]): 51% | inhibition of growth at 10 µM (HOP-62 [30]): 16% | inhibition of growth at 50 µM (HOP-62 [31]): 21% | inhibition of growth at 100 µM (HOP-62 [32]): 28% | inhibition of growth at 10 µM (HCT-15 [33]): 9% | inhibition of growth at 50 µM (HCT-15 [34]): 46% | inhibition of growth at 100 µM (HCT-15 [35]): 56% | inhibition of growth at 10 µM (COLO 205 [36]): 14%

SMILES: CC(=O)O[C@H]1C(=O)[C@@]2(C)[C@H]([C@H](OC(=O)c3ccccc3)[C@]3(O)C[C@H](OC(=O)[C@H](O)[C@@H](NC(=O)c4ccccc4)c4ccccc4)C(C)=C1C3(C)C)[C@]1(OC(C)=O)CO[C@@H]1C[C@@H]2O [PACLITAXEL]
inhibition of growth at 10 µM (IGROV-1 [3]): 15% | inhibition of growth at 10 µM (DU-145 [9]): 52% | inhibition of growth at 10 µM (HEp-2 [12]): 29% | inhibition of growth at 10 µM (SF-295 [15]): 22% | inhibition of growth at 10 µM (A549 [27]): 40% | inhibition of growth at 10 µM (HOP-62 [30]): 26% | inhibition of growth at 10 µM (HCT-15 [33]): 40% | inhibition of growth at 10 µM (COLO 205 [36]): 9%
